Results from publication PMC11395145, “The Archetypal Gamma-Core Motif of Antimicrobial Cys-Rich Peptides Inhibits H^+-ATPases in Target Pathogens” (International Journal of Molecular Sciences, 2024).

Assays:
[1] = tested on: Candida albicans ATCC 10231; test: Microbicidal (spread-plate cell viability) assay, candidacidal activity; type: cell-based; details: for IC50: 90 min, 37 °C, 10 mM Tris-HCl pH 7.4, 10^6 cells/mL, CFU plating, estimated, read-out: IC50 (concentration that caused 50% reduction in viable counts) against C. albicans; for effect of high external K^+ on candidacidal activity: Tris buffer with 50 mM KCl vs without
Method: (§1) First, we tested the antimicrobial activity of Kal-1 and a shorter Kal-1-derived peptide (Kdp15), both containing the complete γ-core signature of human lactoferrin, against C. albicans and P. aeruginosa. Microbicidal (cidal) activity was determined after 90 min of incubation (37 °C; pH 7.4) with a range of concentrations of each hLf-derived peptide.
(§2) Figure 1 Cell viability and membrane permeabilization assays. C. albicans or P. aeruginosa (10^6 cells/mL) were incubated (90 min, 37 °C) with each peptide/protein at the indicated concentrations. Aliquots were plated on SDA or […], and colonies were counted after 24–48 h (C. albicans) or 24 h (P. aeruginosa). At each point, samples were stained with propidium iodide (PI) and intracellular PI incorporation, indicative of membrane permeabilization, was quantified by flow cytometry. The relative cell viability (blue lines) and cellular permeabilization (red lines) were calculated as the percentage of untreated cells. Human lactoferrin (hLf) and the peptide Lfpep were used as negative and positive controls of cellular permeabilization, respectively.
(§3) Microbial susceptibility to the peptides was determined in a spread-plate assay as described previously. Briefly, two-fold serially diluted peptides were incubated (37 °C) with approximately 10^6 cells/mL in Tris buffer (10 mM Tris-HCl, pH 7.4). After 90 min of incubation with the peptides, aliquots were removed and plated in duplicate on an appropriate agar plate for each species (SDA for C. albicans, TSA for P. aeruginosa). The plates were incubated for 24–48 h at 30 °C (C. albicans) or 24 h at 37 °C (P. aeruginosa) for enumeration. The cell viability values, expressed as colony forming units (CFUs), were determined relative to incubation without added peptides and represent the mean ± standard deviation (±SD) of at least three independent determinations. For inhibition assays, the cell suspensions were preincubated (15 min at 37 °C) with the corresponding inhibitors before the addition of peptides. Water-insoluble inhibitors were prepared in DMSO, such that the final assay volume was ≤1%. Other specific experimental inhibition conditions are described where appropriate. The IC50 value is expressed as the concentration that caused 50% reduction in viable counts.

[2] = tested on: Pseudomonas aeruginosa 10145 (PAO1); test: Microbicidal (spread-plate cell viability) assay, pseudomonacidal activity; type: cell-based; details: for IC50: 90 min, 37 °C, 10 mM Tris-HCl pH 7.4, 10^6 cells/mL, CFU plating, read-out: IC50 (concentration that caused 50% reduction in viable counts) against P. aeruginosa; for effect of high external K^+ on pseudomonacidal activity: Tris buffer with 50 mM KCl vs without
Method: as §1, §2, §3

C. albicans cells [3] = test: Cell membrane permeability assay (propidium iodide, flow cytometry); type: cell-based, Candida albicans; details: 90 min, 37 °C, range of concentrations, PI 9 μM
Method: (§4) To determine whether Kal-1 and Kdp15 exert a permeabilizing effect on fungal or bacterial membranes, the cellular influx of the fluorescent nucleic-acid-binding dye propidium iodide (PI) was assessed. As PI itself cannot permeate through an intact phospholipid bilayer, only permeabilized cells take up PI, resulting in DNA intercalation and fluorescence.
(§5) Flow cytometry was used to assess the ability of peptides to permeabilize plasma membranes of cells in incorporation of the DNA intercalating dye propidium iodide (PI). C. albicans or P. aeruginosa cells (10^6 cells/mL) in Tris buffer were incubated with two-fold serially diluted peptides for 90 min at 37 °C and subsequently reincubated with PI (9 μM, final concentration) for 5 min. The suspensions were centrifuged at 1100× g for 10 min and subsequently washed with Tris buffer to remove any unbound PI. The peptide Lfpep was used to disrupt the cytoplasmic membrane (positive control). Cell fluorescence was monitored using a Cytomics FC500 Flow Cytometer (Beckman Coulter Life Sciences, Indianapolis, IN, USA). The PI fluorescence was excited at a wavelength of 488 nm and emission was registered at 610 nm. For each treatment, 20,000 events were measured. Data were acquired and analyzed using CytExpert 2.1 software. Results were expressed as the percentage of PI-positive cells with respect to the unstained cells (control). […]

P. aeruginosa cells [4] = test: as above; type: cell-based, Pseudomonas aeruginosa; details: 90 min, 37 °C, range of concentrations, PI 9 μM
Method: as §4, §5

C. albicans cells [5] = test: Extracellular potassium measurement (K+ efflux, ICP-OES); type: cell-based, Candida albicans; details: 10^7 cells/mL, peptides 2 × IC50, 37 °C
Method: (§6) Figure 2 Potassium efflux induced by hLf γ-core-containing peptides. (A,D) Kinetics of K^+ efflux. C. albicans or P. aeruginosa (10^7 cells/mL) were incubated with kaliocin-1, Kdp15, human lactoferrin (hLf), and Lfpep. hLf and Lfpep were used as negative and positive controls of the membrane permeabilization, respectively. The effect of antifungal BM2 peptide was evaluated. The extracellular K^+ concentration was quantified at different times. (B,C,E) Effect of extracellular K^+ and TEA^+ on microbicidal activity. (B,E) microbicidal activity was assessed in Tris buffer in the absence or in the presence of 50 mM KCl or (C) 10 mM TEA^+. Cell viability was determined by plating aliquots of the cell suspensions. The percentage of viable cells was determined relative to that for cells incubated without peptides (control). […]
(§7) Measurements of potassium were performed using inductively coupled plasma optical emission spectrometry (ICP-OES) with a Perkin-Elmer Optima 2000 DV spectrometer. […] The percentage of cytosolic K^+ released from cell suspensions treated with Lfpep was determined in positive control assays. The total cellular K^+ content (100% value) was measured in the supernatant of cellular suspensions previously treated only with 0.5% (v/v) HClO4, heated for 1 h at 95 °C, and centrifuged to remove cell debris. […]

P. aeruginosa cells [6] = test: as above; type: cell-based, Pseudomonas aeruginosa; details: 10^7 cells/mL, peptides 2 × IC50, 37 °C
Method: as §6, §7

[7] = tested on: Candida albicans ATCC 10231; details: used in control assays; cited from earlier work
Method: First, we tested the antimicrobial activity of Kal-1 and a shorter Kal-1-derived peptide (Kdp15), both containing the complete γ-core signature of human lactoferrin, against C. albicans and P. aeruginosa. Microbicidal (cidal) activity was determined after 90 min of incubation (37 °C; pH 7.4) with a range of concentrations of each hLf-derived peptide. The hLf γ-core-containing peptides were microbicidal in a concentration-dependent way (Figure 1). […] The IC50 es ...

C. albicans cells [8] = test: Oxygen consumption measurement (Clark-type electrode); type: cell-based, Candida albicans; details: 5 × 10^6 cells/mL, peptides at IC50, piericidin A 32 μM, at least 30 min, 25 °C
Method: (§8) Figure 3 Effect of cellular respiration on the microbicidal activity of hLf γ-core-containing peptides. (A,C) Oxygen consumption was measured in C. albicans and P. aeruginosa cellular suspensions in the absence (control) or the presence of kaliocin-1 (Kal-1), Kdp15, or human lactoferrin (hLf), and piericidin A (positive control). (B,D) Effect of cellular respiration on the microbicidal activity of hLf γ-core-containing peptides. Cells (10^6 cells/mL) were pre-incubated (15 min, 37 °C) with 32 μM piericidin A and incubated for 90 min at 37 °C with the peptides hLf or BM2. The cell viability was determined by means of the plate counting method. The results are the mean ± SD from duplicates of at least three independent experiments. * p < 0.05, ** p < 0.01, and *** p < 0.001 were used.
(§9) C. albicans or P. aeruginosa cells were grown to the mid-logarithmic phase, washed twice in Tris buffer, and resuspended in the same buffer, as described in [9, 10]. Briefly, cells (5 × 10^6 cells/mL) were pre-incubated for 15 min at 37 °C with the peptides (IC50). […] Oxygen consumption was measured using a Clark-type oxygen electrode (Dual digital-model 20, Rank Brothers Ltd., Cambridge, UK) in a closed jacketed chamber maintained at 25 °C. […] The viability of the cells was determined at 30 min by removing aliquots from the oxygen chambers and plating the subsequent dilutions on SDA or TSA plates.

P. aeruginosa cells [9] = test: as above; type: cell-based, Pseudomonas aeruginosa; details: 5 × 10^6 cells/mL, peptides at IC50, piericidin A 32 μM, at least 30 min, 25 °C
Method: as §8, §9

C. albicans cells [10] = test: Measurement of intracellular ATP (BacTiter-Glo); type: cell-based, Candida albicans; details: C. albicans 10^6 cells/mL, candidacidal concentration, 90 min, 37 °C; BM2 0.25 μM
Method: Total ATP was measured by using the BacTiter-Glo^TM Microbial Cell Viability Assay (Promega Co., Madison, WI, USA) according to the manufacturer’s instructions. […] Aliquots (100 μL) were incubated (90 min at 37 °C) with kaliocin-1, Kdp15, or human lactoferrin and the BM2 peptide (positive control). One hundred microliters of incubation mix was transferred into a 96-well opaque white plate, mixed with an equal volume of the BacTiter-Glo reagent, and incubated for 15 min in the dark. The reagent used a thermostable luciferase to produce luminescence in an ATP-dependent manner. The emitted luminescence was detected by using a Varioskan Flash multimode reader (Thermo Scientific, Waltham, MA, USA) with a 10 s of shaking and 1 s integration time. A calibration curve was prepared for each experiment, with ATP standards ranging from 1 to 1000 nM. For assays performed in the presence of the BM2 peptide, samples were preincubated with 0.25 μM BM2 for 30 min at 37 °C. All the tests were performed in triplicate at least four times.

Pma1p H^+-ATPase = Pma1p H^+-ATPase (Candida albicans, UniProt P28877); details: starved C. albicans 10^7 cells/mL in 50 mM KCl, pre-incubated with peptide 2 × IC50, 2.5 mM glucose; control ~1.3 pH units
Pma1p H^+-ATPase, sequence (P28877 whole entry): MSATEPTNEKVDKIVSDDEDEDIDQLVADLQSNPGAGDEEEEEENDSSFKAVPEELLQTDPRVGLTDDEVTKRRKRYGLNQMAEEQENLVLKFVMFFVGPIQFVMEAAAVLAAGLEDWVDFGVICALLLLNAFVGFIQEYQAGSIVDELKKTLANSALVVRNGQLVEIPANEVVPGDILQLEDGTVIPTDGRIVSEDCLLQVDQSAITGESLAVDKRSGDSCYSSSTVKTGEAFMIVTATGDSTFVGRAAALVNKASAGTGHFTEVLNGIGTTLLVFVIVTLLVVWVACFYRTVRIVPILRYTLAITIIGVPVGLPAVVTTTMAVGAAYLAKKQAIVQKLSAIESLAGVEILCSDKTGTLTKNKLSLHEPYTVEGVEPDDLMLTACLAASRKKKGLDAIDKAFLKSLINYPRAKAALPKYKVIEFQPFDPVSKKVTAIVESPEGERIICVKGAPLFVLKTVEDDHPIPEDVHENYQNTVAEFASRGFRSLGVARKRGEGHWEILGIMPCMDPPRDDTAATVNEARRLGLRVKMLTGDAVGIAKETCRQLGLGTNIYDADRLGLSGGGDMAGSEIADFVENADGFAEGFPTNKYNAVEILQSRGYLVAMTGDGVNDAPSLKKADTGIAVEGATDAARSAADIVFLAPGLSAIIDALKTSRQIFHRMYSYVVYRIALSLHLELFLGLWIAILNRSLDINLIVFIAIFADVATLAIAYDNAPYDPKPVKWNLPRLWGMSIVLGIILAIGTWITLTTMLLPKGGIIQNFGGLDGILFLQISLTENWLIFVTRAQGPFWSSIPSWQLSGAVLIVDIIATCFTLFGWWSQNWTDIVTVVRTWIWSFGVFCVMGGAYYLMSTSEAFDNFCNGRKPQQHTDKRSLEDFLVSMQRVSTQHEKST
Method: C. albicans cells (10^7 cells/mL) in 50 mM KCl were preincubated with the peptides (2 × IC50) for 20 min. Glucose (final concentration of 2.5 mM) was then added to induce H^+ efflux via Pma1p H^+-ATPase, as indicated by the subsequent external acidification.
To measure the proton pumping activity of Pma1p H^+-ATPase, a glucose-induced acidification assay of the medium was performed as previously described [10]. Briefly, cultures of C. albicans cells were grown to the mid-log phase in SDB medium and washed twice in Tris buffer (pH 8.0). The cells were resuspended in 50 mM KCl and maintained for 18 h at 4 °C to reduce metabolic activity to a minimum (starvation conditions). To determine the external acidification, starved cells (~10^7 cells/mL) were incubated for 15 min at 30 °C in the absence or the presence of the peptides (2 × IC50). Human lactoferrin (20 μM) was used as a positive control. The initial pH of cellular suspension was adjusted with HCl to pH 6.6 (approx.) and glucose was immediately added (final concentration, 2.5 mM) to the cellular suspension. The pH of the medium was recorded at 1 min intervals for 20 min using a SevenMulti S50-K pH meter (Mettler-Toledo, Greifensee, Switzerland) with a calibrated electrode (InLab 413, Mettler-Toledo) with constant stirring. Every experiment was performed using two replicates and repeated independently three times.

[11] = cells pre-incubated 15 min, 37 °C with 32 μM piericidin A, then 90 min with peptide

Row | Sequence | IC50 [1] | effect of high external K^+ on candidacidal activity [1] | IC50 [2] | effect of high external K^+ on pseudomonacidal activity [2] | PI fluorescent cells (plasma membrane permeabilization), C. albicans (C. albicans cells [3]) | PI fluorescent cells (plasma membrane permeabilization), P. aeruginosa (P. aeruginosa cells [4]) | K^+ efflux from C. albicans, in words (C. albicans cells [5]) | K^+ efflux from P. aeruginosa, in words (P. aeruginosa cells [6]) | previously reported microbicidal concentration (organism not given) [7] | effect of mitochondrial ATP synthase inhibition (oligomycin A) on candidacidal activity ([1]; cells pre-incubated 15 min, 37 °C with 16 μg/mL oligomycin A) | effect of respiration inhibition (piericidin A) on candidacidal activity [1, 11] | effect of Tok1p K^+ channel block (TEA^+) on candidacidal activity ([1]; cells pre-incubated 15 min with 10 mM TEA^+) | IC50 against C. albicans relative to IC50 of native hLf (fold greater) ([1]; vs hLf IC50 3 μM) | effect of respiration inhibition (piericidin A) on pseudomonacidal activity [2, 11] | oxygen consumption of C. albicans in presence of the substance (C. albicans cells [8]) | oxygen consumption of P. aeruginosa in presence of the substance (P. aeruginosa cells [9]) | increment in intracellular ATP (iATP) level compared to untreated control (C. albicans cells [10]) | decrease of external pH after 20 min (glucose-induced acidification) (Pma1p H^+-ATPase)
1 | TKCFQWQRNMRKVRGPPVSCIKR [Lfpep, antimicrobial hLf-derived peptide without a γ-core motif that permeabilizes bacterial and fungal cytoplasmic membranes, reference compound] | 20 µM | not modified | 0.5 µM | not modified | significant increase | significant increase | rapid and increased K^+ release | rapid and increased K^+ release | 50 µM |  |  |  |  |  |  |  |  | 
2 | NLCRLCAGTGENKCA [Kdp15] | 100 µM | seemed to protect | 3 µM | seemed to protect | not significantly increased | not significantly increased |  |  |  | less susceptible | less susceptible | less susceptible | ~33 fold | less susceptible | equal to that of untreated (control) cells | equal to that of untreated (control) cells | ~ 5 fold | approximately 0.5 pH units
